This passage reports inhibition results from US9416115B2, “Fused heterocyclic compounds as ion channel modulators” (Gilead Sciences, Inc., priority 2013, dated 2016).

In one experiment the target is hNav1.1 (SCN1A) (Homo sapiens, UniProt P35498). The experiment can be described thus: Use-dependent inhibition of the CNS Nav1.1 sodium channel. As to conditions: use-dependent block, 25 Hz, pulse 20, read-out: Nav1.1 UDB 25 Hz 10 uM. The class given is cell-based. In a few lines:
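HEK-293 cells stably expressing WT hNav1.1, automated whole-cell patch clamp at 23-25 °C with CsF-based internal and NaCl external solutions, pH 7.35. Compound applied twice, 200 s equilibration; block measured at pulse 20 of a 25 Hz train (0 mV, 20 ms) from −120 mV, as mean % inhibition versus compound-free.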

A further experiment deals with T1, hNaV1.2 (SCN2A) (Homo sapiens, UniProt Q99250).
T1 construct: expressed in transfected cells
T1 sequence (Q99250 whole entry): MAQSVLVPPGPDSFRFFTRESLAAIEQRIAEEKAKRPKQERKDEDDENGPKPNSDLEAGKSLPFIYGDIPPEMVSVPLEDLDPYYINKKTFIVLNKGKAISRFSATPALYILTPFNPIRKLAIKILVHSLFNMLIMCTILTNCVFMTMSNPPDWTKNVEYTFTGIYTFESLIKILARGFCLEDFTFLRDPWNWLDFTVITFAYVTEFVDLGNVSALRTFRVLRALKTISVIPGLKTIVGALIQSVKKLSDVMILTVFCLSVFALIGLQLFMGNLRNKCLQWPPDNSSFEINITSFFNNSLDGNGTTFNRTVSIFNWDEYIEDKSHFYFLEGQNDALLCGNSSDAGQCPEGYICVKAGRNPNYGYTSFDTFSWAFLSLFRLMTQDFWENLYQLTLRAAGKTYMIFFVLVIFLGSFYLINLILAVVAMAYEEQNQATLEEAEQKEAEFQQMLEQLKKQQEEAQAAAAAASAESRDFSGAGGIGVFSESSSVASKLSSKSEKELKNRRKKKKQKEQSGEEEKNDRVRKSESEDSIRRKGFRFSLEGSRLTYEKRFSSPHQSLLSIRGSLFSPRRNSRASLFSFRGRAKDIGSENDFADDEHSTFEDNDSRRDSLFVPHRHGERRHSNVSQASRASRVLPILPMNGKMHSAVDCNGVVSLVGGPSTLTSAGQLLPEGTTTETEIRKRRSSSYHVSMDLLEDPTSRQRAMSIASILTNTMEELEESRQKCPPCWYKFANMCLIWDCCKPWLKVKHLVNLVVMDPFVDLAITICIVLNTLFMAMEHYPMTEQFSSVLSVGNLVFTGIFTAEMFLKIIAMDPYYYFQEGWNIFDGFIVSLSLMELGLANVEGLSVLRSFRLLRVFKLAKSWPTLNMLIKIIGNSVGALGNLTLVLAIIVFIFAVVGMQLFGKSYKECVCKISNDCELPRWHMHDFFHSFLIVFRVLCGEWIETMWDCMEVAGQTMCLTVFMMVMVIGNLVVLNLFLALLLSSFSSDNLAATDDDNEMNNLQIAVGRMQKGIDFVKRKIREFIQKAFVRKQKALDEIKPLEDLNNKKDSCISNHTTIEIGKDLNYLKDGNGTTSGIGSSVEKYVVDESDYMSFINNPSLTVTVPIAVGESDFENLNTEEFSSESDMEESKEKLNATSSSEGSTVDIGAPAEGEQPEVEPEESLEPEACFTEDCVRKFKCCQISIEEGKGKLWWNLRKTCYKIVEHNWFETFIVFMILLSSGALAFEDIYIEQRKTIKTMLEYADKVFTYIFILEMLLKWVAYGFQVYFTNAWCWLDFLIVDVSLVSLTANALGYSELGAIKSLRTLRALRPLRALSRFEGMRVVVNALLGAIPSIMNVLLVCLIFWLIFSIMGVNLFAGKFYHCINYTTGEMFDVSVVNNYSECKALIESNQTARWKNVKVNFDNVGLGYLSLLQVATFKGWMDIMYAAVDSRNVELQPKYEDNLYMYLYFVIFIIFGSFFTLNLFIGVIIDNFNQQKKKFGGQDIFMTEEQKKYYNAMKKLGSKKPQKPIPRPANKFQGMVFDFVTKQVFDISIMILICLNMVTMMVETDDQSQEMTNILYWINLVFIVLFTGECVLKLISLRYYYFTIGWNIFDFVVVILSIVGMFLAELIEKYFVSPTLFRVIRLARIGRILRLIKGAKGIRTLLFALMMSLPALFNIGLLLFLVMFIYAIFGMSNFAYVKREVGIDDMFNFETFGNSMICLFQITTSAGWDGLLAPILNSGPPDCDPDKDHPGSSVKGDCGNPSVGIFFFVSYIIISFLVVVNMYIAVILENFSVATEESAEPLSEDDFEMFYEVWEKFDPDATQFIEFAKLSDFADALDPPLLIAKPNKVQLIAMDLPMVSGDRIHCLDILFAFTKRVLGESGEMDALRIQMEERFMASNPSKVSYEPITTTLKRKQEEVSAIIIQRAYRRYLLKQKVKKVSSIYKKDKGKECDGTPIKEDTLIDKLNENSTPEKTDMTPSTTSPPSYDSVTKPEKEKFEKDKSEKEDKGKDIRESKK
T1 sequence (Q07699 19-218 partner): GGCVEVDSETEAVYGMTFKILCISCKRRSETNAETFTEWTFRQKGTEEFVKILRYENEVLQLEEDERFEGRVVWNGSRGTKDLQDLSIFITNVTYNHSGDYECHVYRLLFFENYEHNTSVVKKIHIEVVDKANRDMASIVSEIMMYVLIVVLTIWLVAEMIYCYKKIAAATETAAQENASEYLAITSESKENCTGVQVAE
T1 sequence (O60939 30-215 partner): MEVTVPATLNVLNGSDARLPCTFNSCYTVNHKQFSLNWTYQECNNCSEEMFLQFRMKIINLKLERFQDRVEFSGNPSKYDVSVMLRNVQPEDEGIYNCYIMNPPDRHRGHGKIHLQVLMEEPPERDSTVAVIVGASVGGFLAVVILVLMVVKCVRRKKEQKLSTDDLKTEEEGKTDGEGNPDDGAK
The experiment in a line: Use-dependent inhibition of the CNS Nav1.2 sodium channel. It counts as cell-based. The note with it: use-dependent block, 25 Hz, pulse 20, read-out: Nav1.2 UDB 25 Hz 10 uM. In a few lines: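 Use-dependent block of human Nav1.2 was measured by automated whole-cell patch clamp (QPatch) in HEK-293 cells stably expressing hNaV1.2 with SCN1B and SCN2B. From a holding potential of −120 mV, a train of 20 pulses to 0 mV (20 ms, 25 Hz) was applied. Peak current at pulse 20 was normalized to the first pulse, and percent inhibition was calculated relative to compound-free recordings.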

As to `Fc1cc2onc(OCc3ncccn3)c2cc1-c1ccc(OC(F)(F)F)cc1` [Example 31, 6-fluoro-3-(pyrimidin-2-ylmethoxy)-5-(4-(trifluoromethoxy)phenyl)benzo[d]isoxazole], the inhibition at 10 µM at hNav1.1 (SCN1A) and at hNaV1.2 (SCN2A) was less than 5% each time.

As to `CC1(COc2noc3ccc(-c4ccc(OC(F)(F)F)cc4)cc23)COC1` [Example 92, 3-((3-methyloxetan-3-yl)methoxy)-5-(4-(trifluoromethoxy)phenyl)benzo[d]isoxazole], the inhibition at 10 µM at hNav1.1 (SCN1A) and on hNaV1.2 (SCN2A) was less than 5% throughout.

As to `Cc1nc(C)n(CCOc2noc3ccc(-c4ccc(OC(F)(F)F)cc4)cc23)n1` [Example 76, 3-(2-(3,5-dimethyl-1H-1,2,4-triazol-1-yl)ethoxy)-5-(4-(trifluoromethoxy)phenyl)benzo[d]isoxazole], the inhibition at 10 µM at hNav1.1 (SCN1A) worked out at 27.2%; at hNaV1.2 (SCN2A), 27.9%.

Turning to `Cc1cc(-c2cc3c(OCc4ncccn4)noc3cc2C)ccc1OC(F)(F)F` [Example 27, 6-methyl-5-(3-methyl-4-(trifluoromethoxy)phenyl)-3-(pyrimidin-2-ylmethoxy)benzo[d]isoxazole], the inhibition at 10 µM on hNav1.1 (SCN1A) and on hNaV1.2 (SCN2A) was less than 5% each time.

In the case of `Fc1cc(-c2ccc(OC(F)(F)F)cc2)cc2c(OCc3ncccn3)noc12` [Example 17, 7-fluoro-3-(pyrimidin-2-ylmethoxy)-5-(4-(trifluoromethoxy)phenyl)benzo[d]isoxazole], the inhibition at 10 µM on hNav1.1 (SCN1A) was 5.9%; at hNaV1.2 (SCN2A), less than 5%.

As for `FC(F)(F)Oc1ccc(-c2ccc3onc(OCc4nccn4-c4ccccc4)c3c2)cc1` [Example 64, 3-((1-phenyl-1H-imidazol-2-yl)methoxy)-5-(4-(trifluoromethoxy)phenyl)benzo[d]isoxazole], the inhibition at 10 µM on hNav1.1 (SCN1A) was 33.2%; on hNaV1.2 (SCN2A), 34.7%.

As to `Cc1cc2onc(OCc3ncccn3)c2cc1-c1ccc(OC(F)(F)F)cc1` [Example 26, 6-methyl-3-(pyrimidin-2-ylmethoxy)-5-(4-(trifluoromethoxy)phenyl)benzo[d]isoxazole], the inhibition at 10 µM at hNav1.1 (SCN1A) is 58.6%; on hNaV1.2 (SCN2A), less than 5%.

In the case of `Cc1cccnc1COc1noc2ccc(-c3ccc(OC(F)(F)F)cc3)cc12` [Example 93, 3-((3-methylpyridin-2-yl)methoxy)-5-(4-(trifluoromethoxy)phenyl)benzo[d]isoxazole], the inhibition at 10 µM on hNav1.1 (SCN1A) and at hNaV1.2 (SCN2A) was less than 5% each time.

On to `Cc1cccc(COc2noc3ccc(-c4ccc(OC(F)(F)F)cc4)cc23)n1` [Example 95, 3-((6-methylpyridin-2-yl)methoxy)-5-(4-(trifluoromethoxy)phenyl)benzo[d]isoxazole], for which the inhibition at 10 µM on hNav1.1 (SCN1A) and at hNaV1.2 (SCN2A) was less than 5% in each case.

On to `COc1cc(-c2ccc(OC(F)(F)F)cc2C)cc2c(OCc3ncccn3)noc12` [Example 25, 7-methoxy-5-(2-methyl-4-(trifluoromethoxy)phenyl)-3-(pyrimidin-2-ylmethoxy)benzo[d]isoxazole], for which the inhibition at 10 µM at hNav1.1 (SCN1A) and on hNaV1.2 (SCN2A) was less than 5% each time.

For `Cc1cc(-c2ccc(OC(F)(F)F)cc2)cc2c(OCc3ncco3)noc12` [Example 91, 7-methyl-3-(oxazol-2-ylmethoxy)-5-(4-(trifluoromethoxy)phenyl)benzo[d]isoxazole], the figures for the inhibition at 10 µM on hNav1.1 (SCN1A) and on hNaV1.2 (SCN2A) were 31.1% and 46.9%, respectively.
